What is called DC50 is the concentration giving 50% degradation. A low value points to degradation at low concentration.

This test deals with SWI/SNF-related matrix-associated actin-dependent regulator of chromatin subfamily A member 2 (Homo sapiens, UniProt P51531). Kind of test: Induction of SMARCA2 degradation in human A549 cells measured after 24 hrs by MSD assay. It counts as cell-based.
SWI/SNF-related matrix-associated actin-dependent regulator of chromatin subfamily A member 2, sequence (P51531 whole entry): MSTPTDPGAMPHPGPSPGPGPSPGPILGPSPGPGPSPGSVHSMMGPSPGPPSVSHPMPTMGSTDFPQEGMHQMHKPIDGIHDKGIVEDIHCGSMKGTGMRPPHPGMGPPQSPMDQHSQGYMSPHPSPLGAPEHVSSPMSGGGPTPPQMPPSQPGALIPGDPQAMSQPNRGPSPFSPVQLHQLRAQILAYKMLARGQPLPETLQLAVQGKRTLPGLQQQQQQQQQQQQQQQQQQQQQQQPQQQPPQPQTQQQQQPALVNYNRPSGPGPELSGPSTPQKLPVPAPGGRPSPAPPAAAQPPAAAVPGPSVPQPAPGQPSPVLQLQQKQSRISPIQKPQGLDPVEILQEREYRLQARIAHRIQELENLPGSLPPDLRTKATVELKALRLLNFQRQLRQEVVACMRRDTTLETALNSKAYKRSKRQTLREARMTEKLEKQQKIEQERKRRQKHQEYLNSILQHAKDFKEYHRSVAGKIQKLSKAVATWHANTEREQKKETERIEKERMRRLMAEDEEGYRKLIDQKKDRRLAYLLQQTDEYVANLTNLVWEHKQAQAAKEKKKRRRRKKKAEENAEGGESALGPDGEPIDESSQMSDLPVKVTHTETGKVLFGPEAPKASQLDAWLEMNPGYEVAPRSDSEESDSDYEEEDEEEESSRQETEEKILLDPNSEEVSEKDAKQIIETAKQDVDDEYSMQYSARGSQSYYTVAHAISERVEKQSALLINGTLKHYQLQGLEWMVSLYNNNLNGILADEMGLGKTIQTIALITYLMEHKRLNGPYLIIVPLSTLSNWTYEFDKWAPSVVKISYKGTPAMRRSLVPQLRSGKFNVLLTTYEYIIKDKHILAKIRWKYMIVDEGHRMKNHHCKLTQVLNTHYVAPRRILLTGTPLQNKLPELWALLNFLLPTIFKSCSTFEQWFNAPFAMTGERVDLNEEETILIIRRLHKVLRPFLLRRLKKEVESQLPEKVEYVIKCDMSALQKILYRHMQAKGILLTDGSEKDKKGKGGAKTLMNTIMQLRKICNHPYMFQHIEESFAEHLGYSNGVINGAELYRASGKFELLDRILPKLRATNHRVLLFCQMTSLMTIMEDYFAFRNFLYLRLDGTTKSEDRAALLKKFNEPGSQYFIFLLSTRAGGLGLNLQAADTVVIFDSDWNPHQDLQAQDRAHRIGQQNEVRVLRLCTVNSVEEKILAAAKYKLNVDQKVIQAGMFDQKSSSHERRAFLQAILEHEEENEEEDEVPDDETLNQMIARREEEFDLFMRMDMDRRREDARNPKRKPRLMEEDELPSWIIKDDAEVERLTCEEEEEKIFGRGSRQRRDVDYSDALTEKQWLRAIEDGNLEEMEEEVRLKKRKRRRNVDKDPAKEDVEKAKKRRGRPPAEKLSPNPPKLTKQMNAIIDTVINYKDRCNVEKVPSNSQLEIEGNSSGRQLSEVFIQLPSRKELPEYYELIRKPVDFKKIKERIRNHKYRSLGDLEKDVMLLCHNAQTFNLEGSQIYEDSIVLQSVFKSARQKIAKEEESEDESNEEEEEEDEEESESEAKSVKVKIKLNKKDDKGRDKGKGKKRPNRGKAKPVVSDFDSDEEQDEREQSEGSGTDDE
`Cc1ncsc1-c1ccc(CNC(=O)[C@@H]2C[C@@H](O)CN2C(=O)C(c2cc(OCCN3CCC(c4cnc(N5C6CCC5CN(c5cc(-c7ccccc7O)nnc5N)C6)nc4)CC3)no2)C(C)C)cc1` (stereo partly specified) gave a DC50 of under 0.1 µM.

Turning to `Cc1ncsc1-c1ccc(CNC(=O)[C@@H]2C[C@@H](O)CN2C(=O)C(c2cc(OCCCCN3CCC(c4cnc(N5C6CCC5CN(c5cc(-c7ccccc7O)nnc5N)C6)nc4)CC3)no2)C(C)C)cc1` (stereo partly specified), the DC50 was under 0.1 µM.

As for `Cc1ncsc1-c1ccc(C2(NC(=O)[C@@H]3C[C@@H](O)CN3C(=O)[C@@H](NC(=O)[C@H]3CC4(C3)C[C@H](N3CCC(c5cnc(N6C7CCC6CN(c6cc(-c8ccccc8O)nnc6N)C7)nc5)CC3)C4)C(C)(C)C)CC2)cc1` (stereo partly specified), the DC50 was under 0.1 µM.

`Cc1ncsc1-c1ccc(CNC(=O)[C@@H]2C[C@@H](O)CN2C(=O)[C@@H](NC(=O)[C@H]2CC3(CC[C@H](N4CCC(c5cnc(N6C7CCC6CN(c6cc(-c8ccccc8O)nnc6N)C7)nc5)CC4)CC3)C2)C(C)(C)C)cc1` (stereo partly specified): the DC50 was under 0.1 µM.

Turning to `Cc1ncsc1-c1ccc([C@H](C)NC(=O)[C@@H]2C[C@@H](O)CN2C(=O)[C@@H](NC(=O)[C@H]2CC3(C2)C[C@H](N2CCC(c4cnc(N5C6CCC5CN(c5cc(-c7ccccc7O)nnc5N)C6)nc4)CC2)C3)C(C)(C)C)cc1` (stereo partly specified), the DC50 was under 0.1 µM.

`Cc1ncsc1-c1ccc(CNC(=O)[C@@H]2C[C@@H](O)CN2C(=O)[C@@H](NC(=O)[C@H]2CC3(C2)C[C@H](N2CCN(c4cnc(N5C6CCC5CN(c5cc(-c7ccccc7O)nnc5N)C6)nc4)CC2)C3)C(C)(C)C)cc1` (stereo partly specified) showed a DC50 of under 0.1 µM.
